Results published in PMC10227015, “From a drug repositioning to a structure-based drug design approach to tackle acute lymphoblastic leukemia” (Nature Communications, 2023).

Tests used:
97 kinases = experiment: Kinome profiling (KINOMEscan, whole panel); format: binding, human; details: OR0642 1 µM
Experimental: (§1) Kinome profiling was provided by Eurofins DiscoverX Corporation. Determination of the % control activity for 97 kinases was obtained through an active site-directed competition binding assay that quantitatively measure interactions between compound and kinases. OR0642 was used at 1 μM.
(§2) Supplementary Table 3. KINOMEscan™ Profiling of OR0642. Competition binding assay to quantitatively measure interactions between OR0642 (1 µM) and 97 human kinases and disease relevant mutant variants.
(§3) Target Gene Symbol %Control Target Gene Symbol %Control […]

[1] = system: CCRF-CEM-CRISPR-sgRNA-dCK− cell line; experiment: Proliferation of CCRF-CEM CRISPR-Cas9 cell line deficient for dCK; format: cell-based, human; details: dT 200 µM, dC 1 µM
Experimental: CCFR-CEM cells (obtained from O. Hermine laboratory, Paris, France) were grown at 37 °C in RPMI 1640 with L-glutamine, supplemented with 10% heat-inactivated fetal calf serum. The experiments were carried out on 96-well plates under the following conditions: 14,000 cells per well, RPMI 1640 culture medium supplemented with 10% heat-inactivated fetal calf serum, 200 μM of dT, 1 μM of dC and a range of dilutions of each compound ranging from 40 μM to 10 pM, depending on the activity of the compounds (final 0.2% DMSO). Cells were incubated for 72 h under these different conditions and finally, incubated with 10 µl/well of CellTiter-Blue reagent (Promega) for 4 h at 37 °C. The amount of reduced dye formed by metabolically active cells was quantified by its fluorescence measured at 560 nm (excitation) and 590 nm (emission) in a microplate reader (CLARIOstar, BMG Labtech). A blank well without cells was used as a background control. Each experiment was performed at least three times (with technical triplicates) and data are presented as the mean ± SD.
Stable CCRF-CEM-CRISPR-sgRNA-dCK^− cell line was established by lentiviral transduction using purified lentiviral particles (Horizon Discovery) and blasticidin selection (10 µg/ml). […]

ZAP70 = biological target: T1, ZAP70 (Homo sapiens, UniProt P43403); experiment: KINOMEscan competition binding; details: OR0642 1 µM; read-out: %Control
T1 construct: purchased Eurofins DiscoverX (KINOMEscan scanEDGE 97)
Experimental: as §1, §2, §3

PRKCE = biological target: T2, PRKCE (Homo sapiens, UniProt Q02156); experiment: KINOMEscan competition binding; details: OR0642 1 µM; read-out: %Control
T2 construct: purchased Eurofins DiscoverX (KINOMEscan scanEDGE 97)
Experimental: as §1, §2, §3

p38-alpha = biological target: T3, p38-alpha (Homo sapiens, UniProt Q16539); experiment: KINOMEscan competition binding; details: OR0642 1 µM; read-out: %Control
T3 construct: purchased Eurofins DiscoverX (KINOMEscan scanEDGE 97)
Experimental: as §1, §2, §3

SRC = biological target: T4, SRC (Homo sapiens, UniProt P12931); experiment: KINOMEscan competition binding; details: OR0642 1 µM; read-out: %Control
T4 construct: purchased Eurofins DiscoverX (KINOMEscan scanEDGE 97)
Experimental: as §1, §2, §3

PKAC-alpha = biological target: T5, PKAC-alpha (Homo sapiens, UniProt P17612); experiment: KINOMEscan competition binding; details: OR0642 1 µM; read-out: %Control
T5 construct: purchased Eurofins DiscoverX (KINOMEscan scanEDGE 97)
Experimental: as §1, §2, §3

TSSK1B = biological target: T6, TSSK1B (Homo sapiens, UniProt Q9BXA7); experiment: KINOMEscan competition binding; details: OR0642 1 µM; read-out: %Control
T6 construct: purchased Eurofins DiscoverX (KINOMEscan scanEDGE 97)
Experimental: as §1, §2, §3

ULK2 = biological target: T7, ULK2 (Homo sapiens, UniProt Q8IYT8); experiment: KINOMEscan competition binding; details: OR0642 1 µM; read-out: %Control
T7 construct: purchased Eurofins DiscoverX (KINOMEscan scanEDGE 97)
Experimental: as §1, §2, §3

SNARK = biological target: T8, SNARK (Homo sapiens, UniProt Q9H093); experiment: KINOMEscan competition binding; details: OR0642 1 µM; read-out: %Control
T8 construct: purchased Eurofins DiscoverX (KINOMEscan scanEDGE 97)
Experimental: as §1, §2, §3

PIM3 = biological target: T9, PIM3 (Homo sapiens, UniProt Q86V86); experiment: KINOMEscan competition binding; details: OR0642 1 µM; read-out: %Control
T9 construct: purchased Eurofins DiscoverX (KINOMEscan scanEDGE 97)
Experimental: as §1, §2, §3

PLK1 = biological target: T10, PLK1 (Homo sapiens, UniProt P53350); experiment: KINOMEscan competition binding; details: OR0642 1 µM; read-out: %Control
T10 construct: purchased Eurofins DiscoverX (KINOMEscan scanEDGE 97)
Experimental: as §1, §2, §3

[2] = biological target: T11, JAK3(JH1domain-catalytic) (Homo sapiens, UniProt P52333); experiment: KINOMEscan competition binding; details: OR0642 1 µM; read-out: %Control
T11 construct: JAK3(JH1domain-catalytic); purchased Eurofins DiscoverX (KINOMEscan scanEDGE 97)
Experimental: as §1, §2, §3

PIM2 = biological target: T12, PIM2 (Homo sapiens, UniProt Q9P1W9); experiment: KINOMEscan competition binding; details: OR0642 1 µM; read-out: %Control
T12 construct: purchased Eurofins DiscoverX (KINOMEscan scanEDGE 97)
Experimental: as §1, §2, §3

SRPK3 = biological target: T13, SRPK3 (Homo sapiens, UniProt Q9UPE1); experiment: KINOMEscan competition binding; details: OR0642 1 µM; read-out: %Control
T13 construct: purchased Eurofins DiscoverX (KINOMEscan scanEDGE 97)
Experimental: as §1, §2, §3

TGFBR1 = biological target: T14, TGFBR1 (Homo sapiens, UniProt P36897); experiment: KINOMEscan competition binding; details: OR0642 1 µM; read-out: %Control
T14 construct: purchased Eurofins DiscoverX (KINOMEscan scanEDGE 97)
Experimental: as §1, §2, §3

[3] = biological target: T15, TYK2(JH1domain-catalytic) (Homo sapiens, UniProt P29597); experiment: KINOMEscan competition binding; details: OR0642 1 µM; read-out: %Control
T15 construct: TYK2(JH1domain-catalytic); purchased Eurofins DiscoverX (KINOMEscan scanEDGE 97)
Experimental: as §1, §2, §3

RAF1 = biological target: T16, RAF1 (Homo sapiens, UniProt P04049); experiment: KINOMEscan competition binding; details: OR0642 1 µM; read-out: %Control
T16 construct: purchased Eurofins DiscoverX (KINOMEscan scanEDGE 97)
Experimental: as §1, §2, §3

TRKA = biological target: T17, TRKA (Homo sapiens, UniProt P04629); experiment: KINOMEscan competition binding; details: OR0642 1 µM; read-out: %Control
T17 construct: purchased Eurofins DiscoverX (KINOMEscan scanEDGE 97)
Experimental: as §1, §2, §3

RET = biological target: T18, RET (Homo sapiens, UniProt P07949); experiment: KINOMEscan competition binding; details: OR0642 1 µM; read-out: %Control
T18 construct: purchased Eurofins DiscoverX (KINOMEscan scanEDGE 97)
Experimental: as §1, §2, §3

[4] = system: NOD-SCID-IL2Rγc null (NSG) mice; experiment: In vivo toxicity in NSG mice, 2 weeks, with and without dT; details: mouse models, 80 mg/kg twice/day
Experimental: To evaluate the in vivo toxicity selected compounds were injected by intraperitoneal (IP) route to 7 weeks-old male Swiss mice (n = 2) at 10, 20, 40, 50, or 80 mg/kg by unique injection. […] Compounds were administered in their hydrochloride salt forms. Mice were then observed closely for the next one hour, then every hour for 8 h. Observations were continued for 72 h for signs of pain or toxicity such as change in the behavior and in the activity in the cage (decreased locomotion) or change in the appearance (curved back, eyes half-closed, bristle hair, hips hollowed out). In vivo toxicity of compound OR0642 at 40 and 80 mg/kg was also assessed in the NOD-SCID-IL2Rγc null (NSG) mice model for 2 weeks in the presence and absence of dT to confirm the safety of the compound. […]. Blood samples were collected and spun at 10,000 × g prior to collecting the plasma supernatants. All plasma samples were frozen at −80 °C before sample processing. 13 μl of each plasma sample was mixed with 33 μl of acetonitrile to precipitate proteins and extract the compound. […] Supernatants were transferred to a microplate to be analyzed by LC–MS/MS. All samples were analyzed with a UHPLC coupled to a Shimadzu LC-MS 8030 triple quadrupole. The solutions of a standard range, prepared with plasma from untreated mice, were analyzed in the same series of injections.

T1 sequence (P43403 whole entry): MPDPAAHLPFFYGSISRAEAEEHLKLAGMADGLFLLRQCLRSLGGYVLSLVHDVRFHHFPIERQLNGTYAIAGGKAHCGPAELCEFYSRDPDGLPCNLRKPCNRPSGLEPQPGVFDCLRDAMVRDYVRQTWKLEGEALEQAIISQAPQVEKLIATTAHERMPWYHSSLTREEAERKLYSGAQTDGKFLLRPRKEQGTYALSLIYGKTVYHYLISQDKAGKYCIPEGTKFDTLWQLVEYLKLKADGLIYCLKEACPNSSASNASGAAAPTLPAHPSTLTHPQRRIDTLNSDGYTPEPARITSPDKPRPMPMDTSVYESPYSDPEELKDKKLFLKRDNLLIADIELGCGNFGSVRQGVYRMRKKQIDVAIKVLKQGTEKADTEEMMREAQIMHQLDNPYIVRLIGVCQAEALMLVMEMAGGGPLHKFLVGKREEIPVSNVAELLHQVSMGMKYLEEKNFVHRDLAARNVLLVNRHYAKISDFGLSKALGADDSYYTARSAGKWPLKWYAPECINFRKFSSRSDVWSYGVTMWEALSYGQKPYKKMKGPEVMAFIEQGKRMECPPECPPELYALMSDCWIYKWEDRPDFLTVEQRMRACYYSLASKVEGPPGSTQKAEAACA
T18 sequence (P07949 29-1114): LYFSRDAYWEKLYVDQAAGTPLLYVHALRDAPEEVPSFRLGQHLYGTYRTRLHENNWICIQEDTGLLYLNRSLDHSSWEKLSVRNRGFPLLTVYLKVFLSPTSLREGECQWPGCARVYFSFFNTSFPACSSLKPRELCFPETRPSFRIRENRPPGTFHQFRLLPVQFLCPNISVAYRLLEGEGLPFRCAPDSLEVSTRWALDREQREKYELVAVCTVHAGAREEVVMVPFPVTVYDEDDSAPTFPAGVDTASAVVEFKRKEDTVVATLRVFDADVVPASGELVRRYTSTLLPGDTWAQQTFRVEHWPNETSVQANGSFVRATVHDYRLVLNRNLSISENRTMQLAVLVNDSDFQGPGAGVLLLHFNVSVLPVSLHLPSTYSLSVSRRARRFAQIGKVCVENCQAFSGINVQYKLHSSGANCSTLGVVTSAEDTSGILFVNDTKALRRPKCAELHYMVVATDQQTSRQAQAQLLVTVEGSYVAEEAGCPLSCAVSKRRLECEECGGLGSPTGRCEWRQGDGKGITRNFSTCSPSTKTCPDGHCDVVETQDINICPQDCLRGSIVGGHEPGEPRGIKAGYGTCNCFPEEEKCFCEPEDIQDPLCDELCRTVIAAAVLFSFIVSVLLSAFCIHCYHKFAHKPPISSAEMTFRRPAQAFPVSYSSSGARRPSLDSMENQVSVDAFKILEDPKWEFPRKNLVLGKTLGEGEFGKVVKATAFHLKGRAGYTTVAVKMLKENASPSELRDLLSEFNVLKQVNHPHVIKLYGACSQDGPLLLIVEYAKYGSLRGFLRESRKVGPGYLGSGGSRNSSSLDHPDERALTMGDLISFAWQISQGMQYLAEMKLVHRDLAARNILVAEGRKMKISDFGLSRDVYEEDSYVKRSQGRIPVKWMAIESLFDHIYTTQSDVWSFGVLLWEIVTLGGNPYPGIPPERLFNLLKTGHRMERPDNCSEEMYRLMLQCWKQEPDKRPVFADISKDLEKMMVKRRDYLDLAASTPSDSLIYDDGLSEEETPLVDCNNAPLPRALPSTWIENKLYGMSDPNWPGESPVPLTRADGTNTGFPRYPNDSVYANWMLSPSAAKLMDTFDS
T15 sequence (P29597 871-1187 limits assumed): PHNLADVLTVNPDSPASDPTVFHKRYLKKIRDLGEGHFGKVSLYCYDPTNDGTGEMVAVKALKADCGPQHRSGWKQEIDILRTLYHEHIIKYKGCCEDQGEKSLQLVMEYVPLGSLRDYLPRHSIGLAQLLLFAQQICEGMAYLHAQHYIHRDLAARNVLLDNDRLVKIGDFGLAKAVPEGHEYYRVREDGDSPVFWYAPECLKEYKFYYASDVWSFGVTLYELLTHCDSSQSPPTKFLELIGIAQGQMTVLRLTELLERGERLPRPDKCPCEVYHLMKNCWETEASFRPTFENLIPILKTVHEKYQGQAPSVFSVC
T4 sequence (P12931 whole entry): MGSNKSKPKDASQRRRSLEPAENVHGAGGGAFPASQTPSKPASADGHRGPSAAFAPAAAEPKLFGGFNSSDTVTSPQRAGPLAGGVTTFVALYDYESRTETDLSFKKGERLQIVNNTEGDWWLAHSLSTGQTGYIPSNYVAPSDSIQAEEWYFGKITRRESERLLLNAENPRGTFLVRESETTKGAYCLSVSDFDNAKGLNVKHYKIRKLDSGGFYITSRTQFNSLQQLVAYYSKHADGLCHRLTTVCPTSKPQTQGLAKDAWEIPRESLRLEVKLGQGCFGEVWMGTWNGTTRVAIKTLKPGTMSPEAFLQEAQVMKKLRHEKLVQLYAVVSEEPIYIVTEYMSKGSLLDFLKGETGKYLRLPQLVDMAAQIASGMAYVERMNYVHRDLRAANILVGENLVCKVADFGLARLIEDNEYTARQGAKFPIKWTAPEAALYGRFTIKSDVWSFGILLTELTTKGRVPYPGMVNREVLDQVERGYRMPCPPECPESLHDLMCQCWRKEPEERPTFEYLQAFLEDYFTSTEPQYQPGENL
T8 sequence (Q9H093 whole entry): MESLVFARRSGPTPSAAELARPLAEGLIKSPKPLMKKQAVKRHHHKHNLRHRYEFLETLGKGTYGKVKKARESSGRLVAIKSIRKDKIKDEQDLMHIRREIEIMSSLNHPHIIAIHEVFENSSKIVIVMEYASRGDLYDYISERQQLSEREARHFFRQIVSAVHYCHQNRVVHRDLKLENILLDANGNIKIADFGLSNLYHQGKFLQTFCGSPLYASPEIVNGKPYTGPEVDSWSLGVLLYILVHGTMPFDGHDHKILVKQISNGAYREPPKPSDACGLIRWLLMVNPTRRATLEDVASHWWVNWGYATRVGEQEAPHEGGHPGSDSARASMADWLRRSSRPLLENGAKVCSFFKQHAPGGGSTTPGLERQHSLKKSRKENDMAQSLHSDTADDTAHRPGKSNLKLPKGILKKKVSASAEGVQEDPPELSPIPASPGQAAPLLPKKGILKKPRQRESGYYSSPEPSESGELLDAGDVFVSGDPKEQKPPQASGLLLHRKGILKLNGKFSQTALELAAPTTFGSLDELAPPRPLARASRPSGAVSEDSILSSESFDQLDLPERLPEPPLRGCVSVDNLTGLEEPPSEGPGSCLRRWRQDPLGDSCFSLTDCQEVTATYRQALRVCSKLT
T6 sequence (Q9BXA7 whole entry): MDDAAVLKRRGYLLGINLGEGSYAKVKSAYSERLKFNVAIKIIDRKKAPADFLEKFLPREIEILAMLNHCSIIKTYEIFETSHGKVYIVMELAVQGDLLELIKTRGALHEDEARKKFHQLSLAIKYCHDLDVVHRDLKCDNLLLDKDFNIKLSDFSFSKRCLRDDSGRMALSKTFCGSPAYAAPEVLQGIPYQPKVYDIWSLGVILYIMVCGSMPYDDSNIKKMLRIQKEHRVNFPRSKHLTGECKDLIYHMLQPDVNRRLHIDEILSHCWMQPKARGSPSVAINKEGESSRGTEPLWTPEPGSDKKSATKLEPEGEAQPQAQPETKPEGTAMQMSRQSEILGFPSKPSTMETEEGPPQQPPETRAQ
T14 sequence (P36897 34-503): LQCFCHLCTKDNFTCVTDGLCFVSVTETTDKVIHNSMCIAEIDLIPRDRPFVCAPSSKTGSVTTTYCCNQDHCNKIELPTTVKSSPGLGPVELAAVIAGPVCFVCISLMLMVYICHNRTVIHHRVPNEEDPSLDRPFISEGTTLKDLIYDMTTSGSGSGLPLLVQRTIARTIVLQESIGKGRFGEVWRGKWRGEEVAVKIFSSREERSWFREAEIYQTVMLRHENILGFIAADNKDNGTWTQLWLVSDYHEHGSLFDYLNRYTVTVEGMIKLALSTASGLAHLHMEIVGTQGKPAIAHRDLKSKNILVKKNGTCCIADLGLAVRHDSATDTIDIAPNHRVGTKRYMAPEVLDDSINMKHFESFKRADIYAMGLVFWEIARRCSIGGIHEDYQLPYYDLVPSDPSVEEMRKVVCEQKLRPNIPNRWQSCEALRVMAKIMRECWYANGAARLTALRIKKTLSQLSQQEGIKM
T3 sequence (Q16539 whole entry): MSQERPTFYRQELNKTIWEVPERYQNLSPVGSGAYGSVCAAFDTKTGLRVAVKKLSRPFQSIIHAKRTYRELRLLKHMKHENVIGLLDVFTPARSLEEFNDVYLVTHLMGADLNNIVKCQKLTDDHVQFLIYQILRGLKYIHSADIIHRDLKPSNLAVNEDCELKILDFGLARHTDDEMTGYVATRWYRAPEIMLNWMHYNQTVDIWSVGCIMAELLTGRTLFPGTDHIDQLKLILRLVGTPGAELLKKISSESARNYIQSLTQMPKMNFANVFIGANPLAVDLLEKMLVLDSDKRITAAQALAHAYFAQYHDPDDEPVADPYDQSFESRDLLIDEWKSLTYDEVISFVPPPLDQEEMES
T13 sequence (Q9UPE1 whole entry): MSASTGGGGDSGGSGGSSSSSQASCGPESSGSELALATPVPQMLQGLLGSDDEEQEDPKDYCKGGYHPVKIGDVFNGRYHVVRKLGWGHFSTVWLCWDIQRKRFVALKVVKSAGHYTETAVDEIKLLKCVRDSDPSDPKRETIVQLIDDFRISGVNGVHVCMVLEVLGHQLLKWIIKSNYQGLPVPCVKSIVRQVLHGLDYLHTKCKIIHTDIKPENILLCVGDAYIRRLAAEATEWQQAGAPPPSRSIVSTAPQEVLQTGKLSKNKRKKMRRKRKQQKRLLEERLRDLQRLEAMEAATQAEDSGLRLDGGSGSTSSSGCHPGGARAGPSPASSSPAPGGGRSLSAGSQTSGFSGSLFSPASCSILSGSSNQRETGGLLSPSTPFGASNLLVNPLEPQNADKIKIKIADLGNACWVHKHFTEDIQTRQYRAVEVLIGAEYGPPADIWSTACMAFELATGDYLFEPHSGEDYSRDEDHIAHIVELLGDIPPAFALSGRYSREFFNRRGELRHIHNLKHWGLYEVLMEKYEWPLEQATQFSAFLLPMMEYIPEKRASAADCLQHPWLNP

CCCN(c1nc(-c2nc(N)cc(N)n2)cs1)c1cc(-c2ccc(S(=O)(=O)N3CCN(C)CC3)cc2C(F)(F)F)ccc1C [OR0642]
kinome-wide profiling (97 kinases): none of the 97 kinases tested was inhibited
effect on cell proliferation [1]: did not affect cell proliferation
remaining binding at 1 µM (ZAP70): 97%
remaining binding at 1 µM (PRKCE): 100%
remaining binding at 1 µM (p38-alpha): 100%
remaining binding at 1 µM (SRC): 92%
remaining binding at 1 µM (PKAC-alpha): 85%
remaining binding at 1 µM (TSSK1B): 100%
remaining binding at 1 µM (ULK2): 95%
remaining binding at 1 µM (SNARK): 88%
remaining binding at 1 µM (PIM3): 100%
remaining binding at 1 µM (PLK1): 90%
remaining binding at 1 µM [2]: 97%
remaining binding at 1 µM (PIM2): 100%
remaining binding at 1 µM (SRPK3): 93%
remaining binding at 1 µM (TGFBR1): 98%
remaining binding at 1 µM [3]: 100%
remaining binding at 1 µM (RAF1): 88%
remaining binding at 1 µM (TRKA): 100%
remaining binding at 1 µM (RET): 100%
in vivo tolerance [4]: well tolerated
